Where two headings read alike, the source gives them in different places.
Legend:
[1] = system: E. coli MG1655; assay: LC-MS/MS whole-cell accumulation assay, E. coli MG1655; assay type: cell-based; settings: for EC accum.: E. coli, value ± s.e.m. (Chart 2)
Method: (§1) Accumulation Assay. The accumulation assay was performed in triplicate in batches of ten samples, with each batch containing tetracycline or ciprofloxacin as a positive control. P. aeruginosa PAO1, PAO1 A6, PA14, PA14 A40, and PA1280, and E. coli MG1655 were used in these experiments. For each replicate, 2.5 mL (E. coli) or 5 mL (P. aeruginosa) of an overnight culture was diluted into 250 mL of fresh Luria-Bertani broth (Lennox) or Tryptic Soy Broth (TSB) and grown at 37° C. with shaking to an optical density (OD600) of 0.55-0.60. The bacteria were pelleted at 3220 r.c.f. for 10 min at 4° C., and the supernatant was discarded. The pellets were resuspended in 40 mL of phosphate buffered saline (PBS) and pelleted as before, and the supernatant was discarded. The pellets were resuspended in 8.8 mL of fresh PBS and aliquoted into ten, 1.5 mL Eppendorf tubes (875 μL each). The number of colony-forming units (CFUs) was determined by a calibration curve. The samples were equilibrated at 37° C. with shaking for 5 min; compound was added (final concentration=50 μM), and then the samples were incubated at 37° C. with shaking for either 10 min. These time points were short enough to minimize metabolic and growth changes (no changes in OD600 or CFU count observed). After incubation, 800 μL of the cultures was carefully layered on 700 μL of silicone oil (9:1 AR20/Sigma High Temperature, cooled to −78° C.). Bacteria were pelleted through the oil by centrifuging at 13 000 r.c.f. for 2 min at room temperature (with the supernatant remaining above the oil); the supernatant and oil were then removed by pipetting. To lyse the samples, each pellet was dissolved in […] of water, and then, they were subjected to three (E. coli) or four (P. aeruginosa) freeze-thaw cycles of 3 min in liquid nitrogen followed by 3 min in a water bath at 65° C. P. aeruginosa samples were then treated with 50 µM DNase and RNase and incubated at 37° C. for 15 minutes. The lysates were pelleted at 13 000 r.c.f. for 2 min at room temperature, and the supernatant was collected ([…]). The debris was resuspended in 100 μL of methanol and pelleted as before. The supernatants were removed and combined with the previous supernatants collected. Finally, the remaining debris was removed by centrifuging at 20 000 r.c.f. for 10 min at room temperature. Supernatants were analyzed by LC-MS/MS.
(§2) Samples were analyzed with the 5500 QTRAP LC/MS/MS system (AB Sciex) with a 1200 series HPLC system (Agilent Technologies) including a degasser, an autosampler, and a binary pump. Liquid chromatography separation was performed on an Agilent SB-Aq column (4.6×50 mm, 5 μm) (Agilent Technologies) with mobile phase A (0.1% formic acid in water) and mobile phase B (0.1% formic acid in acetonitrile). The flow rate was 0.3 mL/min. The linear gradient was as follows: 0-3 min, 100% mobile phase A; 10-15 min, 2% mobile phase A; 15.5-21 min, 100% mobile phase A. The autosampler was set at 5° C. The injection volume was 15 μL. Mass spectra were acquired with both positive electrospray ionization at the ion spray voltage of 5500 V and negative electrospray ionization at the ion spray voltage of −4500 V. The source temperature was 450° C. The curtain gas, ion source gas 1, and ion source gas 2 were 33, 50, and 65, respectively. Multiple reaction monitoring was used to quantify the metabolites. Power analysis was not used to determine the number of replicates. Error bars represent the standard error of the mean of three biological replicates. The statistical significance of the accumulation was determined using a two sample Welch's t test (one-tailed test, assuming unequal variance) relative to the negative controls. All compounds evaluated in the biological assays were >95% pure.

[2] = system: P. aeruginosa PAO1; assay: LC-MS/MS whole-cell accumulation assay, P. aeruginosa PAO1; assay type: cell-based, Pseudomonas aeruginosa; settings: for PA accum.: P. aeruginosa, value ± s.e.m. (Chart 2); for WT Accum: WT PAO1, ± s.e.m. (Table 7)
Method: as §1, §2
MBN assay. Assays measuring permeabilization by polymyxin B nonapeptide (PMBN) were performed as above, with the addition of 8 μg/mL PMBN immediately before the compound of interest was added.

[3] = system: WT EC; settings: retrospective literature analysis (Table 6); cited from earlier work
[4] = system: tolC EC; settings: retrospective literature analysis (Table 6); cited from earlier work
[5] = system: WT PA; settings: retrospective literature analysis (Table 6); cited from earlier work
[6] = system: P. aeruginosa PAΔ6; assay: MIC, efflux pump knockout strain PAΔ6; assay type: cell-based, Pseudomonas aeruginosa; settings: for Fold change (MIC): WT MIC / PAΔ6 MIC (Table 7)
Method: (§3) Antimicrobial Susceptibility Tests. Susceptibility testing was performed in biological triplicate, using the microdilution broth method as outlined by the Clinical and Laboratory Standards Institute. Bacteria were cultured with cation-adjusted Meuller-Hinton broth (Sigma-Aldrich; catalogue number: 90922) or Luria-Bertani (LB) broth (Lennox) in round-bottom 96-well plates (Corning; catalogue number: 3788).

[7] = system: P. aeruginosa PAO1; assay: MIC, CLSI broth microdilution, P. aeruginosa PAO1; assay type: cell-based, Pseudomonas aeruginosa; settings: for MIC: Pseudomonas aeruginosa
Method: as §3

[8] = system: P. aeruginosa PAΔ6; assay: LC-MS/MS whole-cell accumulation assay, PAΔ6; assay type: cell-based, Pseudomonas aeruginosa; settings: for Fold change (Accum): PAΔ6 Accum / WT Accum (Table 7); for PAΔ6 Accum: ± s.e.m. (Table 7)
Method: as §1, §2

[9] = system: E. coli MG1655; assay: MIC, E. coli MG1655; assay type: cell-based; settings: Escherichia coli, MG1655; CLSI (Table 8); read-out: E. coli MG1655 MIC
Method: as §3

`CN1C(=O)CCc2cc(-c3cncc4c3CCC[C@H]4N)ccc21` [Compound 53] gave an EC accum. [1] of 437 ± 28 nmol/10^12 CFUs and a PA accum. [2] of 282 ± 37 nmol/10^12 CFUs.

In the case of `Cc1nc(-c2ccc(C(C)(C)C)cc2)ncc1C(=O)N[C@@H](CCN)C(=O)N(C)[C@@H]1C(=O)N[C@@H](C)C(=O)N[C@H](C(=O)NCC#N)Cc2ccc(OCCN)c(c2)-c2cc1ccc2OCCN` [Compound G0775], the “WT EC MIC” value [3] is listed as 0.125 µg/mL, the “tolC EC MIC” value [4] is listed as 0.063 µg/mL and the “WT PA MIC” value [5] is listed as 2 µg/mL.

For `CCNc1cc(F)cc2c1[nH]c1ncc(-c3cnc(OC)nc3)c(-n3cc(CN)c(C(F)(F)F)n3)c12` [Compound 17r], the “WT EC MIC” value [3] is listed as 0.31 µg/mL and the “WT PA MIC” value [5] is listed as 1.3 µg/mL.

In the case of `CC(=O)C1=C(O)[C@H](N)[C@@H]2Cc3c(c(O)c4c(O)c(C)ccc4c3C)C(=O)[C@]2(O)C1=O` [CHD], the “tolC EC MIC” value [4] is listed as 0.5 µg/mL and the “WT PA MIC” value [5] is listed as 16 µg/mL.

With `Cc1ccc(C(=O)N(CCCN)[C@@H](c2nc3cc(Cl)ccc3c(=O)n2Cc2ccccc2)C(C)C)cc1` [Compound 56] the EC accum. [1] was 244 ± 31 nmol/10^12 CFUs and the PA accum. [2] was 658 ± 113 nmol/10^12 CFUs.

For `N[C@H]1CO[C@H]2[C@@H]1OC[C@H]2OS(=O)(=O)c1ccc(Br)cc1` [Compound 49], the EC accum. [1] was 1647 ± 108 nmol/10^12 CFUs and the PA accum. [2] was 217 ± 3 nmol/10^12 CFUs.

In the case of `Cc1nc(-c2ccc(C(C)(C)C)cc2)ncc1C(=O)N[C@@H](CCO)C(=O)N(C)[C@@H]1C(=O)N[C@@H](C)C(=O)N[C@H](C(=O)NCC#N)Cc2ccc(O)c(c2)-c2cc1ccc2O` [Compound G8126], the “WT EC MIC” value [3] is listed as 32 µg/mL and the “WT PA MIC” value [5] is listed as greater than 64 µg/mL.

For `COc1cc(Cc2cnc(N)nc2N)cc(OC)c1OC` [Trimethoprim], the “PAΔ6 MIC” value ([6]; MH or LB broth (Table 7)) was 2 µg/mL, the “Fold change (MIC)” value [6] was greater than 256 and the MIC ([7]; WT P. aeruginosa PAO1, MH or LB broth (Table 7), read-out: WT MIC) was greater than 512 µg/mL. The “WT Accum” value [2] was 136 ± 11 nmol/10^12 CFUs, the “Fold change (Accum)” value [8] was 2.6 and the “PAΔ6 Accum” value [8] was 356 ± 28 nmol/10^12 CFUs.

In the case of `CC(=O)O[C@H]1C[C@@]2(C)[C@@H](C[C@@H](O)[C@H]3[C@@]4(C)CC[C@@H](O)[C@@H](C)[C@@H]4CC[C@@]32C)/C1=C(\CCC=C(C)C)C(=O)O/N=C(\N)CN` [FA prodrug 1], the MIC [9] is reported as greater than 256 µg/mL, the MIC ([7]; PAO1, CLSI (Table 8), read-out: P. aeruginosa PAO1 MIC) is reported as greater than 256 µg/mL and the “EC Accumulation (FA)” value ([1]; E. coli MG1655, accumulation of FA reported (Table 8)) is reported as 850 ± 61 nmol/1012 CFUs.

For `O=C(N[C@H](CO)[C@H](O)c1ccc([N+](=O)[O-])cc1)C(Cl)Cl` [Chloramphenicol], the “PAΔ6 MIC” value ([6]; MH or LB broth (Table 7)) was 4 µg/mL, the Fold change ([6]; MIC ratio WT PAO1 / PAΔ6 (Table 2)) was greater than 128 and the “Fold change (MIC)” value [6] was greater than 128. For the same compound, the “PAΔ6 MIC” value ([6]; efflux pump KO strain, MH or LB broth (Table 2)) was 4 µg/mL, the MIC ([7]; WT P. aeruginosa PAO1, MH or LB broth (Table 2), read-out: WT MIC) was greater than 512 µg/mL and the “WT MIC” value ([7]; WT P. aeruginosa PAO1, MH or LB broth (Table 7)) was greater than 512 µg/mL. The “WT Accum” value [2] was 122 ± 23 nmol/10^12 CFUs, the “change of accumulation in efflux pump knockout PAΔ6 versus WT PAO1” value ([8]; FIG. 1c) was “increase in accumulation” and the “Fold change (Accum)” value [8] was 4.4. The “PAΔ6 Accum” value [8] was 537 ± 19 nmol/10^12 CFUs.

With `Cc1ccc(S(=O)(=O)O[C@@H]2CO[C@H]3[C@@H]2OC[C@@H]3N)cc1` [Compound 50] the EC accum. [1] was 877 ± 29 nmol/10^12 CFUs and the PA accum. [2] was 163 ± 39 nmol/10^12 CFUs.

In the case of `Cc1ccc2c(C)c3c(c(O)c2c1O)C(=O)[C@]1(O)C(=O)C(C(N)=O)=C(O)[C@H](N)[C@@H]1C3` [CDCHD], the “tolC EC MIC” value [4] is listed as 0.25 µg/mL and the “WT PA MIC” value [5] is listed as 1 µg/mL.

— patent US20260240869A1, “ANTIPSEUDOMONAL FUSIDIC ACID COMPOUNDS” (priority 2022, published 2026)
